molecular target: BCL-2 recombinant protein (Homo sapiens, UniProt P10415); experiment: Cell free Bcl-2:Bak affinity assay (Bcl-2 Bak), HTRF competition of FAM-Bak peptide; type: binding; settings: 1 μM compound, 4 nM BCL-2 recombinant protein, 100 nM FAM-Bak, read-out: potency (% inhibition at 1 μM)
Experimental: Biological Assays: Cell Free Bcl-2:Bak Affinity Assay (Bcl-2 Bak)
The assay is based on the competition of fluorescently labeled peptide binding to BCL-2 and the binding is monitored by HTRF signals between anti-GST-Tb and FAM-peptide using GST-Tag BCL proteins. Testing compounds were dissolved in DMSO at 10 mM and tested in 10-concentration IC50 mode. The compounds of interest in DMSO were added in 3-fold serial dilution to each well containing 4 nM of BCL-2 recombinant protein, 20 mM K Phosphate, pH 7.5, 50 mM NaCl, 1 mM EDTA, 0.005% Triton X-100, by using acoustic technology (Labcyte echo 550), After 10 minutes incubation at room temperature, 100 nM of FAM-Bak was added and incubated for another 10 minutes before addition of Anti-GST-Tb. The plate was then sealed and further incubated at room temperature for 60 minutes in the dark before reading. Percentage of inhibition was calculated by % inhibition=100×(FDMSO−F)/(FDMSO−FPC), in which FDMSO is DMSO control and FPC is a positive control. IC50 values were determined from dose-response curve by fitting the percent inhibition against compound concentration using GraphPad Prism software.

BCL-2 recombinant protein, sequence (P10415 whole entry): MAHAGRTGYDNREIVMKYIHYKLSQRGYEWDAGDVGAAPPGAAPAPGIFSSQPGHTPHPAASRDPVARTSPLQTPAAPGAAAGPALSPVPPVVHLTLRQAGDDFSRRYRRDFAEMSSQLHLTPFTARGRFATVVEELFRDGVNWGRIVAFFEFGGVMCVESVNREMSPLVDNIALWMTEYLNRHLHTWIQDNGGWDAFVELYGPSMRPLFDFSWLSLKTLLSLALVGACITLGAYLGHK

Inhibition at 1 µM, 50 to 90%:
CC1(C)CCC(CN2CCN(c3ccc(S(=O)(=O)NC(=O)c4ccc(F)c(Cl)n4)cc3)CC2)=C(c2ccc(Cl)cc2)C1 [Example 1, 6-Chloro-N-[4-[4-[[2-(4-chlorophenyl)-4,4-dimethylcyclohexen-1-yl]methyl]piperazin-1-yl]phenyl]sulfonyl-5-fluoropyridine-2-carboxamide]
CC1(C)CCC(CN2CCN(c3ccc(S(=O)(=O)NC(=O)c4ccc([N+](=O)[O-])c(Cl)n4)cc3)CC2)=C(c2ccc(Cl)cc2)C1 [Example 2, 6-chloro-N-[4-[4-[[2-(4-chlorophenyl)-4,4-dimethylcyclohexen-1-yl]methyl]piperazin-1-yl]phenyl]sulfonyl-5-nitropyridine-2-carboxamide]
CC1(C)CCC(CN2CCN(c3ccc(S(=O)(=O)NC(=O)c4ccc5sccc5c4)cc3)CC2)=C(c2ccc(Cl)cc2)C1 [Example 3, N-[4-[4-[[2-(4-chlorophenyl)-4,4-dimethylcyclohexen-1-yl]methyl]piperazin-1-yl]phenyl]sulfonylbenzo[b]thiophene-5-carboxamide]
Cc1c(C(=O)NS(=O)(=O)c2ccc(N3CCN(CC4=C(c5ccc(Cl)cc5)CC(C)(C)CC4)CC3)cc2)nnn1Cc1ccccc1 [Example 4, 1-benzyl-N-[4-[4-[[2-(4-chlorophenyl)-4,4-dimethylcyclohexen-1-yl]methyl]piperazin-1-yl]phenyl]sulfonyl-5-methyl-1H-1,2,3-triazole-4-carboxamide]
CC1(C)CCC(CN2CCN(c3ccc(S(=O)(=O)NC(=O)c4ccc5ncccc5c4)cc3)CC2)=C(c2ccc(Cl)cc2)C1 [Example 5, N-([4-[4-[[2-(4-chlorophenyl)-4,4-dimethylcyclohexen-1-yl]methyl]piperazin-1-yl]phenyl]sulfonyl)quinoline-6-carboxamide]
CC1(C)CCC(CN2CCN(c3ccc(S(=O)(=O)NC(=O)c4cnccn4)cc3)CC2)=C(c2ccc(Cl)cc2)C1 [Example 6, N-([4-[4-[[2-(4-chlorophenyl)-4,4-dimethylcyclohexen-1-yl]methyl]piperazin-1-yl]phenyl]sulfonyl)pyrazine-2-carboxamide]
CC1(C)CCC(CN2CCN(c3ccc(S(=O)(=O)NC(=O)C45CC(C4)C5)cc3)CC2)=C(c2ccc(Cl)cc2)C1 [Example 7, N-([4-[4-[[2-(4-chlorophenyl)-4,4-dimethylcyclohexen-1-yl]methyl]piperazin-1-yl]phenyl]sulfonyl)bicyclo[1.1.1]pentane-1-carboxamide]
Cc1ncc(C(=O)NS(=O)(=O)c2ccc(N3CCN(CC4=C(c5ccc(Cl)cc5)CC(C)(C)CC4)CC3)cc2)cn1 [Example 8, N-([4-[4-[[2-(4-chlorophenyl)-4,4-dimethylcyclohexen-1-yl]methyl]piperazin-1-yl]phenyl]sulfonyl)-2-methylpyrimidine-5-carboxamide]
CC1(C)CCC(CN2CCN(c3ccc(S(=O)(=O)NC(=O)c4cnc5ccccc5c4)cc3)CC2)=C(c2ccc(Cl)cc2)C1 [Example 9, N-((4-(4-((4′-chloro-5,5-dimethyl-3,4,5,6-tetrahydro-[1,1′-biphenyl]-2-yl)methyl)piperazin-1-yl)phenyl)sulfonyl)quinoline-3-carboxamide]
CN1C(=O)CCc2cc(C(=O)NS(=O)(=O)c3ccc(N4CCN(CC5=C(c6ccc(Cl)cc6)CC(C)(C)CC5)CC4)cc3)ccc21 [Example 10, N-([4-[4-[[2-(4-chlorophenyl)-4,4-dimethylcyclohexen-1-yl]methyl]piperazin-1-yl]phenyl]sulfonyl)-1-methyl-2-oxo-1,2,3,4-tetrahydroquinoline-6-carboxamide]
COc1ccccc1C(=O)NS(=O)(=O)c1ccc(N2CCN(CC3=C(c4ccc(Cl)cc4)CC(C)(C)CC3)CC2)cc1 [Example 11, N-([4-[4-[[2-(4-chlorophenyl)-4,4-dimethylcyclohexen-1-yl]methyl]piperazin-yl]phenyl]sulfonyl)-2-methoxybenzamide]

— patent US11622970B2, “BCL-2 inhibitors and their use as pharmaceuticals” (PRELUDE THERAPEUTICS INCORPORATED, priority 2020, dated 2023)
